The source of these data is ChEMBL document CHEMBL4265947, “Conformation impacts on the bioactivities of SMART analogues” (Eur J Med Chem, 2018).

For one series, the system named is HT-1080. Kind of series: Antiproliferative activity against human HT1080 cells after 72 hrs by MTT assay. Particulars: HT-1080, 72 h. It counts as functional, cell-based.
The nature of series [1]: (§1) Inhibition of porcine tubulin polymerization preincubated for 1 min and measured for 82 mins by fluorescence assay. Details: species or system Sus scrofa.
For another series, the system named is SGC-7901. Kind of series: Antiproliferative activity against human SGC7901 cells after 72 hrs by MTT assay. It counts as functional, cell-based. Particulars: SGC-7901, 72 h.
The test system of the next series is A549. The series is described as follows: Antiproliferative activity against human A549 cells after 72 hrs by MTT assay. Particulars: A549, 72 h. It counts as functional, cell-based.
The nature of series [2]: Selectivity index, ratio of IC50 for mouse L929 cells to IC50 for human SGC7901 cells. It counts as toxicity. Particulars: L929 cells versus SGC7901 cells, read-out: Ratio IC50.
The next series relates to L929. Kind of series: Antiproliferative activity against mouse L929 cells after 72 hrs by MTT assay. It counts as cell-based. As to conditions: L929, 72 h.
Series [3] is described as follows: Selectivity index, ratio of IC50 for mouse L929 cells to IC50 for human HT1080 cells. It counts as toxicity. Particulars: L929 cells versus HT1080 cells, read-out: Ratio IC50.
For another series, the species on record is Sus scrofa. The series is described as §1.
Series [4] is described as follows: Selectivity index, ratio of IC50 for mouse L929 cells to IC50 for human A549 cells. It counts as toxicity. As to conditions: L929 cells versus A549 cells, read-out: Ratio IC50.

Take `COc1cc(C(=O)c2nnc(-c3ccc(C)cc3)s2)cc(OC)c1OC`: the IC50 is above 100000 nM with HT-1080, above 100000 nM in series [1], above 100000 nM in the series with SGC-7901 and 35300 nM in the series with A549.
As for `COc1cc(C(=O)c2nc(-c3ccc(C)cc3)n[nH]2)cc(OC)c1OC`, the selectivity ratio in series [2] stood at 112; in series [3] it was 65.5; in series [4], 39.8. The IC50 was found to be 42600 nM with L929; 650 nM in the series on HT-1080; 7710 nM in series [1]; 380 nM with SGC-7901; 1070 nM in the series with A549. Besides, in the series listed under Sus scrofa, the inhibition result is “Dose-dependent effect”.
As for `COc1cc(C(=O)c2csc(-c3ccccc3)n2)cc(OC)c1OC`, inhibition in the series with HT-1080 was half-maximal at 150 nM (IC50). This counts as sub-micromolar.
`COc1cc2c(c(OC)c1OC)-c1ccc(OC)c(=O)cc1[C@@H](NC(C)=O)CC2` [COLCHICINE]: the selectivity ratio in series [2] was found to be 7.5; in series [3] it was 24; in series [4], 7.4. For the same molecule, the IC50 with L929 stood at 1010 nM; with HT-1080 it was 42 nM; with SGC-7901, 134 nM; with A549, 137 nM.
`COc1ccc(/C=C\c2cc(OC)c(OC)c(OC)c2)cc1O` [COMBRETASTATIN A4]: the results for the IC50 in the series on L929, in the series with SGC-7901 and with A549 were 820 nM, 12 nM and 16 nM, respectively.
Consider `COc1cc(C(=O)c2nnc(-c3ccc(C)cc3)o2)cc(OC)c1OC`, for which the IC50 in the series with HT-1080 is above 100000 nM; with SGC-7901, 6770 nM; with A549, 15300 nM.
